#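 Values below derive from 48-hour exposures of cells grown in 96-well plates, with endpoints linearly interpolated between the two concentrations bracketing the appropriate inhibition level. At the TGI there is no net growth.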
# How the values were obtained:
# Experiment in all cases: NCI-60 cell line screen, 48 h
# 786-0 renal = system: 786-0 renal
# A498 renal = system: A498 renal
# A549 NSCLC = system: A549 NSCLC
# ACHN renal = system: ACHN renal
# CAKI-1 renal = system: CAKI-1 renal
# CCRF-CEM leukemia = system: CCRF-CEM leukemia
# COLO 205 colon = system: COLO 205 colon
# DLD-1 colon = system: DLD-1 colon
# DMS 114 small cell lung = system: DMS 114 small cell lung
# DMS 273 small cell lung = system: DMS 273 small cell lung
# EKVX NSCLC = system: EKVX NSCLC
# HCC-2998 colon = system: HCC-2998 colon
# HCT-116 colon = system: HCT-116 colon
# HCT-15 colon = system: HCT-15 colon
# HL-60(TB) leukemia = system: HL-60(TB) leukemia
# HOP-18 NSCLC = system: HOP-18 NSCLC
# HOP-62 NSCLC = system: HOP-62 NSCLC
# HT29 colon = system: HT29 colon
# IGROV1 ovarian = system: IGROV1 ovarian
# K-562 leukemia = system: K-562 leukemia
# KM12 colon = system: KM12 colon
# KM20L2 colon = system: KM20L2 colon
# LOX IMVI melanoma = system: LOX IMVI melanoma
# M14 melanoma = system: M14 melanoma
# M19-MEL melanoma = system: M19-MEL melanoma
# MALME-3M melanoma = system: MALME-3M melanoma
# MOLT-4 leukemia = system: MOLT-4 leukemia
# NCI-H226 lung = system: NCI-H226 lung
# NCI-H23 lung = system: NCI-H23 lung
# NCI-H460 lung = system: NCI-H460 lung
# NCI-H522 lung = system: NCI-H522 lung
# OVCAR-3 ovarian = system: OVCAR-3 ovarian
# OVCAR-4 ovarian = system: OVCAR-4 ovarian
# OVCAR-5 ovarian = system: OVCAR-5 ovarian
# OVCAR-8 ovarian = system: OVCAR-8 ovarian
# RXF 393 renal = system: RXF 393 renal
# RXF-631 renal = system: RXF-631 renal
# SF-268 CNS = system: SF-268 CNS
# SF-295 CNS = system: SF-295 CNS
# SF-539 CNS = system: SF-539 CNS
# SK-MEL-2 melanoma = system: SK-MEL-2 melanoma
# SK-MEL-28 melanoma = system: SK-MEL-28 melanoma
# SK-MEL-5 melanoma = system: SK-MEL-5 melanoma
# SK-OV-3 ovarian = system: SK-OV-3 ovarian
# SN12C renal = system: SN12C renal
# SNB-19 CNS = system: SNB-19 CNS
# SNB-75 CNS = system: SNB-75 CNS
# SNB-78 CNS = system: SNB-78 CNS
# SW-620 colon = system: SW-620 colon
# TK-10 renal = system: TK-10 renal
# U251 CNS = system: U251 CNS
# UACC-257 melanoma = system: UACC-257 melanoma
# UACC-62 melanoma = system: UACC-62 melanoma
# XF 498 CNS = system: XF 498 CNS
# LXFL 529 NSCLC = system: LXFL 529 NSCLC
# RPMI-8226 leukemia = system: RPMI-8226 leukemia
# SR leukemia = system: SR leukemia
# UO-31 renal = system: UO-31 renal
# HOP-92 NSCLC = system: HOP-92 NSCLC
smiles,measurement,setting,value
CCOC(=O)C1Nc2ccc([N+](=O)[O-])cc2[C@H]2OCC[C@@H]12 (some centres undefined),TGI,786-0 renal,> 100 µM
same,TGI,A498 renal,> 100 µM
same,TGI,A549 NSCLC,> 100 µM
same,TGI,ACHN renal,> 100 µM
same,TGI,CAKI-1 renal,> 100 µM
same,TGI,CCRF-CEM leukemia,> 100 µM
same,TGI,COLO 205 colon,> 100 µM
same,TGI,DLD-1 colon,> 100 µM
same,TGI,DMS 114 small cell lung,> 100 µM
same,TGI,DMS 273 small cell lung,> 100 µM
same,TGI,EKVX NSCLC,> 100 µM
same,TGI,HCC-2998 colon,> 100 µM
same,TGI,HCT-116 colon,> 100 µM
same,TGI,HCT-15 colon,> 100 µM
same,TGI,HL-60(TB) leukemia,> 100 µM
same,TGI,HOP-18 NSCLC,> 100 µM
same,TGI,HOP-62 NSCLC,> 100 µM
same,TGI,HT29 colon,> 100 µM
same,TGI,IGROV1 ovarian,> 100 µM
same,TGI,K-562 leukemia,> 100 µM
same,TGI,KM12 colon,> 100 µM
same,TGI,KM20L2 colon,> 100 µM
same,TGI,LOX IMVI melanoma,> 100 µM
same,TGI,M14 melanoma,> 100 µM
same,TGI,M19-MEL melanoma,> 100 µM
same,TGI,MALME-3M melanoma,> 100 µM
same,TGI,MOLT-4 leukemia,> 100 µM
same,TGI,NCI-H226 lung,> 100 µM
same,TGI,NCI-H23 lung,> 100 µM
same,TGI,NCI-H460 lung,> 100 µM
same,TGI,NCI-H522 lung,> 100 µM
same,TGI,OVCAR-3 ovarian,> 100 µM
same,TGI,OVCAR-4 ovarian,> 100 µM
same,TGI,OVCAR-5 ovarian,> 100 µM
same,TGI,OVCAR-8 ovarian,> 100 µM
same,TGI,RXF 393 renal,> 100 µM
same,TGI,RXF-631 renal,> 100 µM
same,TGI,SF-268 CNS,> 100 µM
same,TGI,SF-295 CNS,> 100 µM
same,TGI,SF-539 CNS,> 100 µM
same,TGI,SK-MEL-2 melanoma,> 100 µM
same,TGI,SK-MEL-28 melanoma,> 100 µM
same,TGI,SK-MEL-5 melanoma,> 100 µM
same,TGI,SK-OV-3 ovarian,> 100 µM
same,TGI,SN12C renal,> 100 µM
same,TGI,SNB-19 CNS,> 100 µM
same,TGI,SNB-75 CNS,> 100 µM
same,TGI,SNB-78 CNS,> 100 µM
same,TGI,SW-620 colon,> 100 µM
same,TGI,TK-10 renal,> 100 µM
same,TGI,U251 CNS,> 100 µM
same,TGI,UACC-257 melanoma,> 100 µM
same,TGI,UACC-62 melanoma,> 100 µM
same,TGI,XF 498 CNS,> 100 µM
CC12CCC(=O)N1c1cc([N+](=O)[O-])ccc1N2 (centres undefined),TGI,786-0 renal,> 100 µM
same,TGI,A498 renal,> 100 µM
same,TGI,A549 NSCLC,> 100 µM
same,TGI,ACHN renal,> 100 µM
same,TGI,CCRF-CEM leukemia,> 100 µM
same,TGI,COLO 205 colon,> 100 µM
same,TGI,DLD-1 colon,> 100 µM
same,TGI,DMS 114 small cell lung,> 100 µM
same,TGI,DMS 273 small cell lung,> 100 µM
same,TGI,EKVX NSCLC,> 100 µM
same,TGI,HCT-116 colon,> 100 µM
same,TGI,HCT-15 colon,> 100 µM
same,TGI,HL-60(TB) leukemia,> 100 µM
same,TGI,HOP-18 NSCLC,> 100 µM
same,TGI,HOP-62 NSCLC,> 100 µM
same,TGI,HT29 colon,> 100 µM
same,TGI,IGROV1 ovarian,> 100 µM
same,TGI,K-562 leukemia,> 100 µM
same,TGI,KM12 colon,> 100 µM
same,TGI,KM20L2 colon,> 100 µM
same,TGI,LOX IMVI melanoma,> 100 µM
same,TGI,LXFL 529 NSCLC,> 100 µM
same,TGI,M14 melanoma,> 100 µM
same,TGI,M19-MEL melanoma,> 100 µM
same,TGI,MALME-3M melanoma,> 100 µM
same,TGI,MOLT-4 leukemia,> 100 µM
same,TGI,NCI-H226 lung,> 100 µM
same,TGI,NCI-H23 lung,> 100 µM
same,TGI,NCI-H522 lung,> 100 µM
same,TGI,OVCAR-3 ovarian,> 100 µM
same,TGI,OVCAR-4 ovarian,> 100 µM
same,TGI,OVCAR-8 ovarian,> 100 µM
same,TGI,RPMI-8226 leukemia,> 100 µM
same,TGI,RXF 393 renal,> 100 µM
same,TGI,RXF-631 renal,> 100 µM
same,TGI,SF-268 CNS,> 100 µM
same,TGI,SF-295 CNS,> 100 µM
same,TGI,SF-539 CNS,> 100 µM
same,TGI,SK-MEL-2 melanoma,> 100 µM
same,TGI,SK-MEL-28 melanoma,> 100 µM
same,TGI,SK-MEL-5 melanoma,> 100 µM
same,TGI,SK-OV-3 ovarian,> 100 µM
same,TGI,SN12C renal,> 100 µM
same,TGI,SNB-19 CNS,> 100 µM
same,TGI,SNB-75 CNS,> 100 µM
same,TGI,SNB-78 CNS,> 100 µM
same,TGI,SR leukemia,> 100 µM
same,TGI,SW-620 colon,> 100 µM
same,TGI,U251 CNS,> 100 µM
same,TGI,UACC-257 melanoma,> 100 µM
same,TGI,UACC-62 melanoma,> 100 µM
same,TGI,UO-31 renal,> 100 µM
same,TGI,XF 498 CNS,> 100 µM
CCCCCCN(CCCCCC)C1=CC(=O)C(=O)c2ccccc21,TGI,786-0 renal,30.3 µM
same,TGI,A498 renal,41.6 µM
same,TGI,A549 NSCLC,36.5 µM
same,TGI,ACHN renal,30.9 µM
same,TGI,CAKI-1 renal,28.6 µM
same,TGI,CCRF-CEM leukemia,> 100 µM
same,TGI,COLO 205 colon,31.4 µM
same,TGI,DLD-1 colon,32.3 µM
same,TGI,DMS 273 small cell lung,34.7 µM
same,TGI,EKVX NSCLC,27.7 µM
same,TGI,HCC-2998 colon,35.6 µM
same,TGI,HCT-116 colon,32.9 µM
same,TGI,HCT-15 colon,34.8 µM
same,TGI,HL-60(TB) leukemia,34.6 µM
same,TGI,HOP-18 NSCLC,29.7 µM
same,TGI,HOP-62 NSCLC,32.8 µM
same,TGI,HOP-92 NSCLC,28.7 µM
same,TGI,HT29 colon,35.6 µM
same,TGI,IGROV1 ovarian,31.1 µM
same,TGI,K-562 leukemia,46.4 µM
same,TGI,KM12 colon,31.5 µM
same,TGI,KM20L2 colon,37.6 µM
same,TGI,LOX IMVI melanoma,22.1 µM
same,TGI,LXFL 529 NSCLC,33.4 µM
same,TGI,M14 melanoma,32.4 µM
same,TGI,M19-MEL melanoma,4.99 µM
same,TGI,MALME-3M melanoma,35.8 µM
same,TGI,MOLT-4 leukemia,51.3 µM
same,TGI,NCI-H226 lung,34.7 µM
same,TGI,NCI-H23 lung,27.8 µM
same,TGI,NCI-H460 lung,33.6 µM
same,TGI,NCI-H522 lung,24.2 µM
same,TGI,OVCAR-3 ovarian,14 µM
same,TGI,OVCAR-4 ovarian,29.2 µM
same,TGI,OVCAR-5 ovarian,33.2 µM
same,TGI,OVCAR-8 ovarian,29.7 µM
same,TGI,RPMI-8226 leukemia,60.2 µM
same,TGI,RXF 393 renal,40.5 µM
same,TGI,RXF-631 renal,38.3 µM
same,TGI,SF-268 CNS,36.6 µM
same,TGI,SF-295 CNS,29.1 µM
same,TGI,SF-539 CNS,30.9 µM
same,TGI,SK-MEL-2 melanoma,35.1 µM
same,TGI,SK-MEL-28 melanoma,31.8 µM
same,TGI,SK-MEL-5 melanoma,30.9 µM
same,TGI,SK-OV-3 ovarian,31.6 µM
same,TGI,SN12C renal,30.3 µM
same,TGI,SNB-19 CNS,29.6 µM
same,TGI,SNB-75 CNS,31.1 µM
same,TGI,SNB-78 CNS,51.8 µM
same,TGI,SR leukemia,63.3 µM
same,TGI,SW-620 colon,27.3 µM
same,TGI,TK-10 renal,36.1 µM
same,TGI,U251 CNS,29.3 µM
same,TGI,UACC-257 melanoma,28.6 µM
same,TGI,UACC-62 melanoma,30.8 µM
same,TGI,UO-31 renal,26.2 µM

# — PubChem BioAssay (NCI)
